According to patent US20240189318A1, “THERAPEUTIC REGIMENS OF AN INHIBITOR OF THE ENZYMATIC ACTIVITY OF BRG1 AND BRM” (FOGHORN THERAPEUTICS INC., priority 2021, published 2024):
pIC50: −log10 of the molar value. Read-outs that look alike come from different tables or passages of the source.

Columns and labels:
[1] = tested on: 249 other ATPases; test: Additional profiling: binding to other ATPases in cells
[2] = target: T1, OATP1B3 (Homo sapiens, UniProt Q9NPD5); test: Transporter inhibition in MDCK-II cells, OATP1B3; format: in vitro ADME; details: probe CCK-8 2 μM
T1 construct: expressed in transfected cells; host or cells: MDCK-II
T1 sequence (Q9NPD5 whole entry): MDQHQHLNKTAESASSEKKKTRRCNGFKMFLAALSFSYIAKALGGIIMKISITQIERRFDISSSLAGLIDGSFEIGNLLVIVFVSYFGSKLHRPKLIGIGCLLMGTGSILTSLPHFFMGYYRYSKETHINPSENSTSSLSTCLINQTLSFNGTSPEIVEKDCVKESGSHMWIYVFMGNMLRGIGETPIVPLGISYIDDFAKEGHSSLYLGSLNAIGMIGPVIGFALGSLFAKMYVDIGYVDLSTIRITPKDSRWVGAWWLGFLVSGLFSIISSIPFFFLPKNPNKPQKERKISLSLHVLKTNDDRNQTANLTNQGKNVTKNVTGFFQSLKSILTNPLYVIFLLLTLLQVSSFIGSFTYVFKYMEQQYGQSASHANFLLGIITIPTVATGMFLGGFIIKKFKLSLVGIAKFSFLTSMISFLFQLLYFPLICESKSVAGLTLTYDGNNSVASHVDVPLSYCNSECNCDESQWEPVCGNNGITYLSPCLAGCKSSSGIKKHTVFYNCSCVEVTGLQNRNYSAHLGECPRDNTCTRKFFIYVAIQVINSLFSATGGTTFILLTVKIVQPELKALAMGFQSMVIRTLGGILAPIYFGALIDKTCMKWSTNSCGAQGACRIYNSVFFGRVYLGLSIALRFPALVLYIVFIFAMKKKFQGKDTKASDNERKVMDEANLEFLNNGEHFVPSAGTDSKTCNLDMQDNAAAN

[3] = target: T2, BCRP (Homo sapiens, UniProt Q9UNQ0); test: Transporter inhibition in MDCK-II cells, BCRP; format: in vitro ADME; details: for pIC50: probe prazosin 2 μM
T2 construct: expressed in transfected cells; host or cells: MDCK-II
T2 sequence (Q9UNQ0 1-655): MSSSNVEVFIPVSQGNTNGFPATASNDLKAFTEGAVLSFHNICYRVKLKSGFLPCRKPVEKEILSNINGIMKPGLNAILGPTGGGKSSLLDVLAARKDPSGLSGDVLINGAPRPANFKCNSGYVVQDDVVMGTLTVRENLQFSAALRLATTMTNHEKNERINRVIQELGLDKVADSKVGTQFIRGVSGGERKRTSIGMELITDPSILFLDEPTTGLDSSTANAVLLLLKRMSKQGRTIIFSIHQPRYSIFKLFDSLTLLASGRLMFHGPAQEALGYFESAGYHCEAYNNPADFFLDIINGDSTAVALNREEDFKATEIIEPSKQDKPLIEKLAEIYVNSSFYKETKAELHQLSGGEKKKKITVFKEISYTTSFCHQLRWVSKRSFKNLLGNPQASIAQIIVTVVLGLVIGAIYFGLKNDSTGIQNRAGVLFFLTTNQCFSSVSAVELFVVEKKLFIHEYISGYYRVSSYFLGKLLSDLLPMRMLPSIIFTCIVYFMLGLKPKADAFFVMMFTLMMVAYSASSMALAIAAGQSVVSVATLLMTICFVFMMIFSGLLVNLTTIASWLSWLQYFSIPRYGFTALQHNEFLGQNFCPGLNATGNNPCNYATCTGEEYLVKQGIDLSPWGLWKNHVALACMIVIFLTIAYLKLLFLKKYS

[4] = target: CYP3A4 (Homo sapiens, UniProt P08684); test: Depletion by recombinant CYP enzyme, CYP3A4; format: in vitro ADME; details: recombinant 3A4
Sequence of CYP3A4 (P08684 whole entry): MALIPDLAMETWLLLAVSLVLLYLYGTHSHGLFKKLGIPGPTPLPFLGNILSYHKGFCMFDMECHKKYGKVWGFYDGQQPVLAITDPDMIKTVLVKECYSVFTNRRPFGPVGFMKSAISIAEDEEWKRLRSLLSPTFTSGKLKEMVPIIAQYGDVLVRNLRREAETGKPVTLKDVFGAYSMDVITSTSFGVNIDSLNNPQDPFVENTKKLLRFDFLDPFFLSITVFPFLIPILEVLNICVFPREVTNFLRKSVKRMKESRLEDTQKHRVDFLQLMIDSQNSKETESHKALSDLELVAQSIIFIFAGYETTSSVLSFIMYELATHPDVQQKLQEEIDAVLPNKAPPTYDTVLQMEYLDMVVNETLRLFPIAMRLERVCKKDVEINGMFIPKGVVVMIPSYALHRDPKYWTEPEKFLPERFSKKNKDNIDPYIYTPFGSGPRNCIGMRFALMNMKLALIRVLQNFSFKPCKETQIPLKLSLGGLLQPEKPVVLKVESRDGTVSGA

[5] = target: CYP2C8 (Homo sapiens, UniProt P10632); test: Depletion by recombinant CYP enzyme, CYP2C8; format: in vitro ADME; design: from tissue; host or cells: pooled human liver microsomes; details: recombinant 2C8
Sequence of CYP2C8 (P10632 whole entry): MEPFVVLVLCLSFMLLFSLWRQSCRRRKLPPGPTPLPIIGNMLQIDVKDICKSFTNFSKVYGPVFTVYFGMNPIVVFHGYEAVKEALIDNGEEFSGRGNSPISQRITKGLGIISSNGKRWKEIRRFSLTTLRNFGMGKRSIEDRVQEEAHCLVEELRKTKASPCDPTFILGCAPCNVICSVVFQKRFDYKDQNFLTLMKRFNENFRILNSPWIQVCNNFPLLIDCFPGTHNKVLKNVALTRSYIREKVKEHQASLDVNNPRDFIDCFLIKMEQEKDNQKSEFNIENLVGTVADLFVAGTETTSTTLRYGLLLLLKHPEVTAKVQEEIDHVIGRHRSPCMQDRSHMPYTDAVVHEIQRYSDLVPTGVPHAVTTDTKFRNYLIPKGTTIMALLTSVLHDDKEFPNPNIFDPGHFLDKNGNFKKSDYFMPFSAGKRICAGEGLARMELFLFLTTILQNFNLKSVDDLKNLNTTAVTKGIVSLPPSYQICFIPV

[6] = target: CYP2C9 (Homo sapiens, UniProt P11712); test: Depletion by recombinant CYP enzyme, CYP2C9; format: in vitro ADME; design: from tissue; host or cells: pooled human liver microsomes; details: recombinant 2C9
Sequence of CYP2C9 (P11712 whole entry): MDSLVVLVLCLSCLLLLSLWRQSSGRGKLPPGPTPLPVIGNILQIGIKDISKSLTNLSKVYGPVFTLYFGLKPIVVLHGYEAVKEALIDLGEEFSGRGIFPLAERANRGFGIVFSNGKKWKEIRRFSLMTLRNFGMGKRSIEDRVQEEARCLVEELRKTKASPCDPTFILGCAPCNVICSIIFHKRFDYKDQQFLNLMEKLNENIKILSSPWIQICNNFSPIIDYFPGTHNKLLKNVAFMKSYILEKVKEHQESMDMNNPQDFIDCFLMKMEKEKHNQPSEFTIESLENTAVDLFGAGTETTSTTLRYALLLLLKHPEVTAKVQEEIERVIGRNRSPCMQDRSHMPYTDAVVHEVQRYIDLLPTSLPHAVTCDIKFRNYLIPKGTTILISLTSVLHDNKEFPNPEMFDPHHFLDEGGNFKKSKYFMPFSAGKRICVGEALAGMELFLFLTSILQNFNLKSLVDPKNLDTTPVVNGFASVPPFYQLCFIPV

[7] = target: T3, CYP1A2 (Homo sapiens, UniProt P05177); test: CYP enzyme inhibition in pooled human liver microsomes, CYP1A2; details: for inhibition at 30 µM: human, microsomes, Enzyme activity (% inhibition), CYP1A2, probe Phenacetin
T3 sequence (P05177 1-516): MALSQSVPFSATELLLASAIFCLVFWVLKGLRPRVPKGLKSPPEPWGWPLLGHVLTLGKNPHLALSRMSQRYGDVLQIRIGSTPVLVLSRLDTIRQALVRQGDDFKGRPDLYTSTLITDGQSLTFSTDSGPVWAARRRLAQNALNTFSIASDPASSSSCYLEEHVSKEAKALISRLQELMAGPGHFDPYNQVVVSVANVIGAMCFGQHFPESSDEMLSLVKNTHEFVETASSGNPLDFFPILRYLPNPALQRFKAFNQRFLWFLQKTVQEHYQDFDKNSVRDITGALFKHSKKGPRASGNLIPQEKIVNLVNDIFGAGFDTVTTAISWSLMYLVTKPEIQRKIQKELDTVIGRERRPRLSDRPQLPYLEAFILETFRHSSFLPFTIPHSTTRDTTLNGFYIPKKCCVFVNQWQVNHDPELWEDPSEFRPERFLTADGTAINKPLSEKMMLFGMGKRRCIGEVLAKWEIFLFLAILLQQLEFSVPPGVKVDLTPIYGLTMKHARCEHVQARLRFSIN

[8] = tested on: CYP2B6 mRNA; test: CYP mRNA level (qRT-PCR) in cultured human hepatocytes, CYP2B6; details: tested concentrations up to 50 nM
[9] = target: CYP2C19 (Homo sapiens, UniProt P33261); test: CYP enzyme inhibition in pooled human liver microsomes, CYP2C19; details: for inhibition at 30 µM: human, microsomes, Enzyme activity (% inhibition), CYP2C19, probe S-Mephenytoin
Sequence of CYP2C19 (P33261 whole entry): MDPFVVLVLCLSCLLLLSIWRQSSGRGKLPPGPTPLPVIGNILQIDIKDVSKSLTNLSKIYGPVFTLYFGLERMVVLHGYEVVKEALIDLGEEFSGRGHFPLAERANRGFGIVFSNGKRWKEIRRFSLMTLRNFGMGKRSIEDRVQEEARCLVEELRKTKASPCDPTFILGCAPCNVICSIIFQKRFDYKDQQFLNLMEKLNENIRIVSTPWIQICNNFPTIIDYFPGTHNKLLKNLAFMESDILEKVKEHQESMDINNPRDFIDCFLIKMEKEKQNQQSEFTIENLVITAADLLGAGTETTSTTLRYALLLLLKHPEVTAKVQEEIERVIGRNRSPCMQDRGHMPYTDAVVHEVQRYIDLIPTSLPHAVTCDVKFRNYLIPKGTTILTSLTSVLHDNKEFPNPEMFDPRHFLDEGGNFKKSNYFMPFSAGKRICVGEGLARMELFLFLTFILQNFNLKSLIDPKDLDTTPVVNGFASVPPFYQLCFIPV

[10] = PHLM, concentrations up to 30 μM
[11] = 30 Minutes Pre-incubation with NADPH, PHLM
[12] = 30 Minutes Pre-incubation without NADPH, PHLM

COC[C@H](NC(=O)c1ccn(S(C)(=O)=O)c1)C(=O)Nc1nc(-c2cccc(N3C[C@@H](C)O[C@@H](C)C3)n2)cs1 [compound of formula (I), N-((S)-1-((4-(6-(cis-2,6-dimethylmorpholino)pyridin-2-yl)thiazol-2-yl)amino)-3-methoxy-1-oxopropan-2-yl)-1-(methylsulfonyl)-1H-pyrrole-3-carboxamide]
binding to 249 other ATPases in cells [1]: little binding | pIC50 ([2]; OATP1B3, corrected, read-out: IC50 corrected for non-specific binding): 5.57 | pIC50 ([2]; OATP1B3 in MDCK-II cells, read-out: Estimated IC50 using nominal concentrations): 4.94 | pIC50 ([3]; BCRP in MDCK-II cells, read-out: Estimated IC50 using nominal concentrations): 5.00 | pIC50 ([3]; BCRP, corrected, read-out: IC50 corrected for non-specific binding): 5.62 | R-value for BCRP inhibition in the gut ([3]; FDA guidance 2020, human dose of 300 mg): > 10 | % Remaining of Compound of Formula (I) ([4]; 0.1 μM): 0.0% | % Remaining of Compound of Formula (I) ([4]; 1 μM): 1.2% | % Remaining of Compound of Formula (I) ([5]; 0.1 μM): 81.0% | % Remaining of Compound of Formula (I) ([5]; 1 μM): 95.4% | % Remaining of Compound of Formula (I) ([6]; 0.1 μM): 79.9% | % Remaining of Compound of Formula (I) ([6]; 1 μM): 100% | pIC50 [7]: < 4.52 | direct inhibitory activity (% inhibition) toward CYP1A2 [7, 10]: < 50% | inhibition at 30 µM [7, 11]: 11.8% | inhibition at 30 µM [7, 12]: 8.5% | inhibition at 30 µM ([7]; No Pre-incubation, PHLM): 11.4% | effect on mRNA expression of CYP2B6 [8]: minimal effect | pIC50 [9]: < 4.52 | direct inhibitory activity (% inhibition) toward CYP2C19 [9, 10]: < 50% | inhibition at 30 µM [9, 11]: 28.1% | inhibition at 30 µM [9, 12]: 21.4% | inhibition at 30 µM ([9]; No Pre-incubation, PHLM): 23.1%
